# Reference: patent publication US6384224B2, “Certain 1-(2-naphthyl) and 1-(2-azanaphthyl)-4-(1-phenylmethyl) piperazines; dopamine receptor subtype specific ligands” (Neurogen Corporation, priority 1997, dated 2002)
# Tests used:
# D4 receptors = test: D4 receptor binding, 3H-YM 09151-2 displacement, COS cell pellets; parameters: species or system African Green monkey; settings: for IC50: evaluated in the assays described above (Example 7), read-out: interaction with the D4 receptor subtype (IC50); for Ki: recombinant receptor in COS cells, 0.5 nM 3H-YM 09151-2
# Protocol: (§1) Pellets of COS cells containing recombinantly produced D2 or D4 receptors from African Green monkey are used for the assays. The sample is homogenized in 100 volumes (w/vol) of 0.05 M Tris HCl buffer at 4° C. and pH 7.4. The sample is then centrifuged at 30,000×g and resuspended and rehomogenized. The sample is again centrifuged as described above and the final tissue sample is frozen until use. The tissue is resuspended 1:20 (wt/vol) in 0.05 M Tris HCl buffer containing 100 mm NaCl.
# (§2) Incubations are carried out at […] and contain 0.4 ml of tissue sample, 0.5 nM ^3H-YM 09151-2 (Nemonapride, cis-5-Chloro-2-methoxy-4-(methylamino)-N-(2-methyl-2-(phenylmethyl)-3-pyrrolidinyl)benzamide) and the compound of interest in a total incubation of 1.0 ml. Nonspecific binding is defined as that binding found in the presence of […]; without further additions, nonspecific binding is less than 20% of total binding. Binding characteristics for examples of compounds encompassed within Formula I for the D2 and D4 receptor subtypes are shown in Table 2 for rat striatal homogenates.
# D2 receptors = target: T1, D2 receptors (Chlorocebus aethiops, UniProt P52702); test: D2 receptor binding, 3H-YM 09151-2 displacement, COS cell pellets; parameters: species or system African Green monkey; settings: recombinant receptor in COS cells; 0.5 nM 3H-YM 09151-2
# T1 construct: expressed in transfected cells; host or cells: COS cells
# Protocol: as §1, §2
# T1 sequence (P52702 whole entry): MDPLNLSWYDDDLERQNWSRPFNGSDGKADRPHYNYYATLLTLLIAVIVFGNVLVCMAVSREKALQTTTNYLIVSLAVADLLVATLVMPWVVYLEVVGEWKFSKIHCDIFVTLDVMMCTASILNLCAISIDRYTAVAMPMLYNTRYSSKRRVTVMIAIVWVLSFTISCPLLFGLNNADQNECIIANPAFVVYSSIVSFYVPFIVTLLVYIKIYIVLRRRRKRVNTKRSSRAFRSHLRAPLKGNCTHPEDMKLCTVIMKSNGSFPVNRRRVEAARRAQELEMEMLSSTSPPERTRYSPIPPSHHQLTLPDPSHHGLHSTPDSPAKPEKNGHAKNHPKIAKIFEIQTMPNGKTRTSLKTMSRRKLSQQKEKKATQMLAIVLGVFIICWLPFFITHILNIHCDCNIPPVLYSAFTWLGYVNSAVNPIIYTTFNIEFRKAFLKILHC
SMILES,melting point,also measured
Br.Fc1ccccc1CN1CCN(c2ccc3ccccc3c2)CC1,239 to 240 °C,
"c1ccc(CN2CCN(c3ccc4ccccc4n3)CC2)cc1 [Comparative Compound B, 1-(quinolin-2-yl)-4-benzylpiperazine, reference compound]",,IC50 (D4 receptors): 194 nM
Br.Clc1ccc(CN2CCN(c3ccc4ccccc4n3)CC2)cc1Cl,285 to 287 °C,
CC(C)c1ccc(CN2CCN(c3ccc4ccccc4n3)CC2)cc1.Cl,270 to 271 °C,
Fc1cc(N2CCN(Cc3ccccc3)CC2)nc2ccccc12.O=C(O)C(=O)O,186 to 187 °C,
Br.Fc1ccc(CN2CCN(c3ccc4ccccc4c3)CC2)cc1,244 to 246 °C,
Br.FC(F)(F)c1ccc(CN2CCN(c3ccc4ccccc4n3)CC2)cc1,271 to 273 °C,
"FC(F)(F)Oc1ccc(CN2CCN(c3ccc4ccccc4n3)CC2)cc1 [Example 3(l), 1-(quinolin-2-yl)-4-(1-[4-trifluoromethoxyphenyl]methyl)piperazine]",109 to 110 °C,
Br.Cc1ccc(CN2CCN(c3ccc4ccccc4c3)CC2)cc1,222 to 223 °C,
Clc1ccc(CN2CCN(c3ccc4c(n3)CCCC4)CC2)cc1 [Compound 7],,Ki (D2 receptors): 1930 nM; Ki (D4 receptors): 7 nM
Clc1ccc(CN2CCN(c3cnc4ccccc4n3)CC2)cc1 [Compound 3],,Ki (D2 receptors): > 4000 nM; Ki (D4 receptors): 11 nM
Fc1ccc(CN2CCN(c3cc(F)c4ccccc4n3)CC2)cc1.O=C(O)C(=O)O,191 to 193 °C,
CC(C)(C)c1ccc(CN2CCN(c3ccc4ccccc4n3)CC2)cc1.Cl,285 to 287 °C,
Clc1ccc(CN2CCN(c3ccc4ccccc4c3)CC2)cc1 [Compound 6],,Ki (D2 receptors): > 4000 nM; Ki (D4 receptors): 9 nM
Cc1ccc(CN2CCN(c3ccc4ccccc4n3)CC2)cc1 [Compound 2],,Ki (D2 receptors): > 4000 nM; Ki (D4 receptors): 8 nM
Br.c1ccc2nc(N3CCN(Cc4ccc5c(c4)OCO5)CC3)ccc2c1,279 to 280 °C,
Br.Fc1cccc(CN2CCN(c3ccc4ccccc4c3)CC2)c1,253 to 255 °C,
Clc1ccc(CN2CCN(c3ncc4ccccc4n3)CC2)cc1.O=C(O)C(=O)O,207 to 209 °C,
"c1ccc(CN2CCN(c3ccc4ccccc4c3)CC2)cc1 [Comparative Compound A, 1-naphth-2-yl-4-benzylpiperazine, reference compound]",,IC50 (D4 receptors): 33 nM

# Continued, in another order:
melting point,SMILES,also measured
293 to 295 °C,Br.Cc1nc2ccccc2nc1N1CCN(Cc2ccc(Cl)cc2)CC1,
262 to 264 °C,Br.Cc1cc(N2CCN(Cc3ccc(Cl)cc3)CC2)nc2c(C)cccc12,
295 to 296 °C,Br.Cc1ccc2c(C)cc(N3CCN(Cc4ccc(Cl)cc4)CC3)nc2c1,
268 to 271 °C,Br.Clc1ccc(CN2CCN(c3ccc4ccccc4n3)CC2)cc1,
215 to 217 °C,Br.Cc1cc(N2CCN(Cc3ccc(Cl)cc3)CC2)nc2ccccc12,
250 to 253 °C,COc1ccc2nc(N3CCN(Cc4ccc(Cl)cc4)CC3)cc(C)c2c1.Cl,
209 to 212 °C,Clc1ccc(CN2CCN(c3cnc4ccccc4n3)CC2)cc1.O=C(O)C(=O)O,
216 to 218 °C,Cl.Clc1ccc(CN2CCN(c3ccc4ccccc4c3)CC2)cc1,
278 to 280 °C,Cc1ccc(CN2CCN(c3ccc4ccccc4n3)CC2)cc1.Cl,
